Test results: patent publication US20120021476A1, “Trace Element Solution For Biogas Methods” (AGRAFERM TECHNOLOGIES AG, priority 2007, published 2012)
Like-named read-outs stand apart in the source and are kept apart here. Residues, ends and D or L forms follow the SMILES beside them.

What was measured:
[1] = cited from earlier work
[2] = cited from earlier work; remark: listed apart in the source
[3] = cited from earlier work; remark: listed apart in the source
[4] = cited from earlier work; remark: listed apart in the source
[5] = cited from earlier work; remark: listed apart in the source
[6] = cited from earlier work; remark: listed apart in the source
[7] = cited from earlier work; remark: listed apart in the source
[8] = cited from earlier work; remark: listed apart in the source
[9] = Concentrations of the trace elements in the fermentation residue with different complexing agents; type: physicochemical
Source text: In Table 1 the trace element solution according to the invention contains the complexing agent in a stoichiometric amount of 60% EDTA and 60% of a phosphoric acid mixture relative to the overall amount of trace elements, which is composed of identical molar amounts of pyrophosphoric acid (H4P2O7), polyphosphoric acid (H6P4O13), metaphosphoric acid (H4P4O12), hypophosphoric Acid (H3PO2) and phosphorus acid (phosphonic acid) (H3PO3).

[10] = as above; type: physicochemical; remark: listed apart in the source
[11] = tested on: aromatic amino acid synthesis; settings: cited from earlier work
[12] = cited from earlier work; remark: listed apart in the source
[13] = equimolar EDTA, neutral pH
Source text: If instead of EDTA, complexing agents are used which form complexes of two or several ligands of the complexing agent per metal atom, then a correspondingly multiple (double, multiple) molar amount of the relevant ligands must be used in order to complex the trace elements in the solution.

[14] = cited from earlier work; remark: listed apart in the source
[15] = 100 × times metal versus Simple, 50% NTA
[16] = column after 50% NTA and citrate (500%), not the invention

O=C(O)c1ccccc1O [(C6H4)(OH)(COOH), Salicylic acid]
complexing of Mn^2+ in words [1]: very good | complexing of Co^2+ in words [2]: very good | complexing of Ni^2+ in words [3]: very good | complexing of Cu^2+ in words [4]: very good | complexing of Fe^3+ in words [5]: excellent | complexing of Zn^2+ in words [6]: good

O=C(O)C(=O)O [(COOH)2, Oxalic acid]
complexing of Ca^2+ in words [7]: precipitates | complexing of Fe^2+ in words [8]: moderate | complexing of Co^2+ in words [2]: moderate | complexing of Ni^2+ in words [3]: moderate | complexing of Cu^2+ in words [4]: moderate | complexing of Fe^3+ in words [5]: good | complexing of Zn^2+ in words [6]: moderate

[Al] [Al]
Bio-availability (Invention) ([9]; 60% EDTA 60% phosphoric acids): 100% | Difference [10, 15]: 9931.3% | Bio-availability [10, 16]: 100%

O=CC(=O)O [C2H2O3, oxoethanoic acid]
complexing of Fe^2+ in words [8]: somewhat more poorly | complexing of Co^2+ in words [2]: somewhat more poorly | complexing of Ni^2+ in words [3]: somewhat more poorly | complexing of Cu^2+ in words [4]: in small amounts

N[C@@H](CS)C(=O)O [C3H7O2NS, Cysteine]
complexing of Co^2+ in words [2]: extremely well | complexing of Ni^2+ in words [3]: extremely well

O=C(O)CNCP(=O)(O)O [C3H8O5NP, n-phosphomethylglicine]
effect on aromatic amino acid synthesis [11]: inhibits the aromatic amino acid synthesis

N[C@@H](CC(=O)O)C(=O)O [C4H7O4N, Aspartic acid]
complexing of Ni^2+ in words [3]: very well | complexing of Cu^2+ in words [4]: very well | complexing of Al^3+ in words [12]: only moderately | complexing of Zn^2+ in words [6]: very well

C[C@@H](O)[C@H](N)C(=O)O [C4H9O3N, Threonine]
complexing of Co^2+ in words [2]: good | complexing of Cu^2+ in words [4]: very well | complexing of Zn^2+ in words [6]: good

O=C(O)c1cc(=O)[nH]c(=O)[nH]1 [C5H4O4N2, Orotic acid]
complexing of Co^2+ in words [2]: able to complex | complexing of Ni^2+ in words [3]: able to complex | complexing of Cu^2+ in words [4]: able to complex

N[C@@H](CCC(=O)O)C(=O)O [C5H9O4N, Glutamic acid]
complexing of Ni^2+ in words [3]: very well | complexing of Cu^2+ in words [4]: very well | complexing of Zn^2+ in words [6]: not so well

CC(C)[C@H](N)C(=O)O [C5H11O2N, valine]
complexing of Ni^2+ in words [3]: very well | complexing of Cu^2+ in words [4]: very well | complexing of Zn^2+ in words [6]: very well

N[C@@H](Cc1c[nH]cn1)C(=O)O [C6H9O2N3, Histidine]
complexing of Ca^2+ in words [7]: poor | complexing of Mn^2+ in words [1]: good | complexing of Co^2+ in words [2]: very good | complexing of Ni^2+ in words [3]: very good | complexing of Cu^2+ in words [4]: very good | complexing of Al^3+ in words [12]: good | complexing of Zn^2+ in words [6]: very good

O=C[C@H](O)[C@@H](O)[C@@H](O)[C@H](O)C(=O)O [C6H10O7, galacturonic acid]
complexing of Fe^2+ in words [8]: very well

N[C@@H](CSSC[C@H](N)C(=O)O)C(=O)O [C6H12O4N2S2, cystine]
complexing of Ni^2+ in words [3]: very well | complexing of Cu^2+ in words [4]: excellent | complexing of Zn^2+ in words [6]: very well

NCCCC[C@H](N)C(=O)O [C6H14O2N2, lysine]
complexing of Ni^2+ in words [3]: very good | complexing of Cu^2+ in words [4]: very good | complexing of Zn^2+ in words [6]: well

N[C@@H](Cc1ccccc1)C(=O)O [C9H11O2N, phenylalanine]
complexing of Cu^2+ in words [4]: very good | complexing of Zn^2+ in words [6]: very good

O=C(O)CN(CCN(CC(=O)O)CC(=O)O)CC(=O)O [C10H16O8N2, ethylenediaminetetraacetic acid]
precipitation in the presence of H2S [13]: no precipitation | complexing of Mg^2+ in words [14]: well | complexing of Ca^2+ in words [7]: very well | complexing of Fe^2+ in words [8]: very well | complexing of Mn^2+ in words [1]: very well | complexing of Co^2+ in words [2]: very well | complexing of Ni^2+ in words [3]: very well | complexing of Cu^2+ in words [4]: very well | complexing of Fe^3+ in words [5]: extremely well | complexing of Zn^2+ in words [6]: very well

O=C(O)CS [CH2(SH)COOH, mercaptoacetic acid (thio-glycol acid)]
complexing of Fe^2+ in words [8]: very good | complexing of Mn^2+ in words [1]: good | complexing of Co^2+ in words [2]: very good | complexing of Fe^3+ in words [5]: excellent | complexing of Zn^2+ in words [6]: excellent

CC(=O)CC(C)=O [CH3(C═O)CH2(C═O)CH3, acetylacetone]
complexing of Mg^2+ in words [14]: moderately well | complexing of Fe^2+ in words [8]: moderately well | complexing of Mn^2+ in words [1]: moderately well | complexing of Co^2+ in words [2]: moderately well | complexing of Ni^2+ in words [3]: well | complexing of Cu^2+ in words [4]: well | complexing of Al^3+ in words [12]: extremely well | complexing of Fe^3+ in words [5]: extremely well

CC(=O)C(=O)O [CH3(C═O)COOH, oxopropionic acid (pyruvic acid, pyruvate)]
complexing of Fe^2+ in words [8]: somewhat more poorly | complexing of Co^2+ in words [2]: somewhat more poorly | complexing of Ni^2+ in words [3]: somewhat more poorly | complexing of Cu^2+ in words [4]: in small amounts

CC(O)C(=O)O (stereo not shown) [CH3CH(OH)COOH, 2-hydroxypropionic acid (lactic acid)]
complexing of Fe^2+ in words [8]: somewhat more poorly | complexing of Co^2+ in words [2]: somewhat more poorly | complexing of Ni^2+ in words [3]: somewhat more poorly | complexing of Cu^2+ in words [4]: in small amounts

[Ca+2] [Ca, calcium]
Bio-availability (Invention) [9]: 100% | Difference [10, 15]: 38.2% | Bio-availability [10, 16]: 100%

[Co] [Co, cobalt]
Bio-availability (Invention) [9]: 100% | bio-availability in words ([10]; 50% NTA): hardly bio-available at all | Difference [10, 15]: −100.0% | Bio-availability [10, 16]: 0%

[Cu] [Cu, copper]
Bio-availability (Invention) ([9]; 60% EDTA 60% phosphoric acids): 0% | Difference [10, 15]: −100.0% | Bio-availability [10, 16]: 0%

O=C(O)CNCCNCC(=O)O [EDDA, Ethylendiimine diacetic acid]
complexing of Mn^2+ in words [1]: well | complexing of Co^2+ in words [2]: very well | complexing of Zn^2+ in words [6]: very well

[Fe] [Fe, iron]
Bio-availability (Invention) ([9]; 60% EDTA 60% phosphoric acids): 100% | Difference [10, 15]: 4260.1% | Bio-availability [10, 16]: 100%

OB(O)O [H3O3B, boric acid]
complexing of Mg^2+ in words [14]: only with difficulty | complexing of Ca^2+ in words [7]: only with difficulty | complexing of Fe^3+ in words [5]: very good

O=P(O)(O)OP(=O)(O)O [H4P2O7, pyrophosphoric acid]
complexing of Mg^2+ in words [14]: very strongly | complexing of Mn^2+ in words [1]: very strongly

O=C(O)CC(O)(CC(=O)O)C(=O)O [HOOCCH2C(OH)(COOH)CH2COOH, Citric acid]
complexing of Co^2+ in words [2]: good | complexing of Ni^2+ in words [3]: good | complexing of Cu^2+ in words [4]: good | complexing of Fe^3+ in words [5]: good

O=C(O)CC(O)C(=O)O (stereo not shown) [HOOCCH2CH(OH)COOH, malic acid]
complexing of Al^3+ in words [12]: good | complexing of Fe^3+ in words [5]: good

O=C(O)CC(S)C(=O)O (stereo not shown) [HOOCCH2CH(SH)COOH, Mercaptomalic acid]
complexing of Ni^2+ in words [3]: well | complexing of Zn^2+ in words [6]: well

CC(C)[C@H](N)C(=O)N[C@H](C(=O)O)C(C)C [L-valyl-L-valine] (H-Val-Val-OH)
complexing of Ni^2+ in words [3]: very good

[Mg+2] [Mg, magnesium]
Bio-availability (Invention) ([9]; 60% EDTA 60% phosphoric acids): 100% | Difference [10, 15]: 9698.1% | Bio-availability [10, 16]: 100%

[Mn+2] [Mn, manganese]
Bio-availability (Invention) [9]: 100% | Bio-availability [10]: 31% | Difference [10]: −99.2%

[Ni] [Ni, nickel]
Bio-availability (Invention) [9]: 100% | Bio-availability [10]: 0% | Difference [10]: −100.0% | available share of the added volume [10]: 2 ppm | bio-availability in words [10]: hardly bio-available at all

[Zn] [Zn, zinc]
Bio-availability (Invention) [9]: 100% | bio-availability in words ([10]; 50% NTA): hardly bio-available at all | Difference [10, 15]: −100.0% | Bio-availability [10, 16]: 0%

meso-malic acid
complexing of Al^3+ in words [12]: good | complexing of Fe^3+ in words [5]: good
